Experimental data published in PubChem BioAssay AID248 (DTP/NCI, 2004).
Where “and” joins values, the source holds several entries; their conditions need not be identical. Equal entries are not always repeated. Inconclusive results and toxic doses are left out. Cut-off read from the data, not from the text of the source: active = T/C of 150% or more; inactive = T/C below 125%.

Test system: L1210 leukemia ip in BDF1 mice, survival T/C
Assay: NCI In Vivo Anticancer Drug Screen. Data for tumor model L1210 Leukemia (intraperitoneal) in B6D2F1 (BDF1) mice
Details: endpoint: mean survival time, higher = longer survival
How it was run: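 In this screen, tumor-bearing mice given compound are compared to those given vehicle, and their survival values are reported as a treated-to-control quotient.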

[1] = dose: 100.0 mg/kg/injection, schedule: Q01DX001 (ip), vehicle: other
[2] = dose: 200.0 mg/kg/injection, schedule: Q01DX001 (ip), vehicle: other
[3] = dose: 400.0 mg/kg/injection, schedule: Q01DX001 (ip), vehicle: other
[4] = dose: 100.0 mg/kg/injection, schedule: Q01DX009 (ip), vehicle: Klucel (hydroxypropylcellulose) (HPC)
[5] = dose: 200.0 mg/kg/injection, schedule: Q01DX009 (ip), vehicle: Klucel (hydroxypropylcellulose) (HPC)
[6] = dose: 100.0 mg/kg/injection, schedule: Q04DX003 (ip), vehicle: saline with Tween-80
[7] = dose: 200.0 mg/kg/injection, schedule: Q04DX003 (ip), vehicle: saline with Tween-80
[8] = dose: 400.0 mg/kg/injection, schedule: Q04DX003 (ip), vehicle: saline with Tween-80
[9] = dose: 100.0 mg/kg/injection, schedule: Q04DX003 (ip), vehicle: saline
[10] = dose: 200.0 mg/kg/injection, schedule: Q04DX003 (ip), vehicle: saline
[11] = dose: 75.0 mg/kg/injection, schedule: Q01DX001 (ip), vehicle: other
[12] = dose: 150.0 mg/kg/injection, schedule: Q01DX001 (ip), vehicle: other
[13] = dose: 300.0 mg/kg/injection, schedule: Q01DX001 (ip), vehicle: other
[14] = dose: 50.0 mg/kg/injection, schedule: Q01DX009 (ip), vehicle: saline with Tween-80
[15] = dose: 100.0 mg/kg/injection, schedule: Q01DX009 (ip), vehicle: saline with Tween-80
[16] = dose: 400.0 mg/kg/injection, schedule: Q04DX003 (ip), vehicle: saline
[17] = dose: 100.0 mg/kg/injection, schedule: Q01DX009 (ip), vehicle: saline

Measured: T/C

Nc1ccc(C(O)(C(F)(F)F)C(F)(F)F)c(C(=O)O)c1
inactive: dose: 100.0 mg/kg/injection, schedule: Q04DX003 (ip), vehicle: other 101 % of control | dose: 200.0 mg/kg/injection, schedule: Q04DX003 (ip), vehicle: other 101 % of control | dose: 400.0 mg/kg/injection, schedule: Q04DX003 (ip), vehicle: other 101 % of control

O=C(OC1CCCCC1c1ccccc1)c1cc([N+](=O)[O-])cc([N+](=O)[O-])c1 (stereo not given)
inactive: [1] 89 % of control | [2] 89 % of control | [3] 89 % of control

COC(=O)C1Oc2ccc(Cl)cc2Cc2cc(Cl)ccc2O1
inactive: [4] 93 % of control | dose: 100.0 mg/kg/injection, schedule: Q04DX003 (ip), vehicle: Klucel (hydroxypropylcellulose) (HPC) 100 % of control | [5] 93 % of control | dose: 200.0 mg/kg/injection, schedule: Q04DX003 (ip), vehicle: Klucel (hydroxypropylcellulose) (HPC) 93 % of control | dose: 400.0 mg/kg/injection, schedule: Q01DX009 (ip), vehicle: Klucel (hydroxypropylcellulose) (HPC) 93 % of control | dose: 400.0 mg/kg/injection, schedule: Q04DX003 (ip), vehicle: Klucel (hydroxypropylcellulose) (HPC) 90 % of control

COC1OC(CO)C(O)C1OS(C)(=O)=O (stereo not given)
inactive: dose: 100.0 mg/kg/injection, schedule: Q01DX001 (ip), vehicle: saline 101 % of control | dose: 200.0 mg/kg/injection, schedule: Q01DX001 (ip), vehicle: saline 103 % of control | dose: 400.0 mg/kg/injection, schedule: Q01DX001 (ip), vehicle: saline 101 % of control

N#CC1=C(N)CCP(c2ccccc2)C1 (stereo not given)
inactive: [6] 94 % of control | [7] 97 % of control | [8] 100 % of control

CC(C)(C)CC(C)(C)c1ccc(OCCOc2ccccc2NC(=O)c2ccc3ccccc3c2O)cc1
inactive: [6] 98 % of control | [7] 103 % of control | [8] 86 % of control

Clc1ccc(NC(Nc2ccc(Cl)c(Cl)c2)C(Cl)(Cl)Cl)cc1Cl
inactive: [6] 101 % of control | [7] 90 % of control

O=C(CCNC(=O)OCc1ccccc1)NC(Cc1ccccc1)C(=O)OCc1ccccc1 (stereo not given)
inactive: [6] 103 % of control | [7] 97 % of control | [8] 95 % of control

NC(Cc1ccccc1)c1ccccc1 (stereo not given) (tested in a mixture with another compound)
inactive: [9] 89 % of control and 95 % of control | [10] 89 % of control

N#Cc1ncc(C(Cl)Cl)nc1Cl
inactive: [9] 101 % of control | [10] 92 % of control

Cc1ccc(NC(=O)Oc2ccc3ccccc3c2)c([N+](=O)[O-])c1
inactive: [6] 99 % of control | [7] 99 % of control | [8] 89 % of control

CC1CCC2(NC1)OC1CC3C4CCC5CC(O)CCC5(C)C4CCC3(C)C1C2C (stereo not given)
inactive: [1] 94 % of control | [2] 91 % of control | [3] 94 % of control

O=C(O)C1=C(C2CCCCC2)C(=O)c2ccccc21
inactive: [11] 112 % of control | [12] 93 % of control | [13] 102 % of control

CCCCn1c(C)cc2c(c1=O)COC(=O)C2(O)CC (stereo not given)
inactive: dose: 2.5 mg/kg/injection, schedule: Q04DX003 (ip), vehicle: saline 101 % of control | dose: 5.0 mg/kg/injection, schedule: Q04DX003 (ip), vehicle: saline 98 % of control | dose: 10.0 mg/kg/injection, schedule: Q04DX003 (ip), vehicle: saline 100 % of control | dose: 20.0 mg/kg/injection, schedule: Q04DX003 (ip), vehicle: saline 96 % of control | dose: 40.0 mg/kg/injection, schedule: Q04DX003 (ip), vehicle: saline 94 % of control

Nc1ccc(C(=O)CC(O)(C(F)(F)F)C(F)(F)F)cc1
inactive: dose: 25.0 mg/kg/injection, schedule: Q01DX009 (ip), vehicle: saline with Tween-80 92 % of control | [14] 94 % of control | [15] 100 % of control and 92 % of control | dose: 200.0 mg/kg/injection, schedule: Q01DX009 (ip), vehicle: saline with Tween-80 95 % of control

CC1CCCCC12C(=O)NC(=S)NC2=O (stereo not given)
inactive: [11] 112 % of control | [12] 98 % of control | [13] 101 % of control

CCN(CC)c1ccc(N=C2C=C(C(=O)Nc3ccccc3)C(=O)c3ccccc32)cc1
inactive: [1] 86 % of control | [2] 89 % of control | [3] 88 % of control

CC(=O)OC1CCC2(C)C(CCC3C(CCC(=O)O)C(C)(CC(C)C(=O)O)CCC32)C1 (stereo not given)
inactive: dose: 100.0 mg/kg/injection, schedule: Q04DX003 (sc), vehicle: steriod suspending solution 116 % of control | dose: 200.0 mg/kg/injection, schedule: Q04DX003 (sc), vehicle: steriod suspending solution 109 % of control | dose: 400.0 mg/kg/injection, schedule: Q04DX003 (sc), vehicle: steriod suspending solution 113 % of control

CCOC(=O)C(F)=C(CF)CF
inactive: dose: 50.0 mg/kg/injection, schedule: Q01DX001 (ip), vehicle: carboxymethylcellulose (CMC) 105 % of control | dose: 100.0 mg/kg/injection, schedule: Q01DX001 (ip), vehicle: carboxymethylcellulose (CMC) 111 % of control | dose: 200.0 mg/kg/injection, schedule: Q01DX001 (ip), vehicle: carboxymethylcellulose (CMC) 109 % of control | dose: 400.0 mg/kg/injection, schedule: Q01DX001 (ip), vehicle: carboxymethylcellulose (CMC) 94 % of control

O=[N+]([O-])c1ccc(/C=N/O)s1
inactive: dose: 25.0 mg/kg/injection, schedule: Q04DX002 (ip), vehicle: saline with Tween-80 95 % of control | dose: 50.0 mg/kg/injection, schedule: Q04DX002 (ip), vehicle: saline with Tween-80 104 % of control

Cc1ccc(-c2nn[nH]n2)cc1
inactive: [9] 97 % of control | [10] 96 % of control | [16] 96 % of control

O=C(O)C1C(C(=O)O)C2(Cl)C(Cl)=C(Cl)C1(Cl)C2(Cl)Cl.[Co] (stereo not given)
inactive: dose: 12.5 mg/kg/injection, schedule: Q01DX009 (ip), vehicle: saline 116 % of control | dose: 25.0 mg/kg/injection, schedule: Q01DX009 (ip), vehicle: saline sonified 112 % of control | dose: 25.0 mg/kg/injection, schedule: Q01DX009 (ip), vehicle: saline 110 % of control | dose: 33.0 mg/kg/injection, schedule: Q01DX009 (ip), vehicle: saline sonified 108 % of control | dose: 50.0 mg/kg/injection, schedule: Q01DX001 (ip), vehicle: Klucel (hydroxypropylcellulose) (HPC) 98 % of control | dose: 50.0 mg/kg/injection, schedule: Q01DX009 (ip), vehicle: saline 115 % of control | dose: 75.0 mg/kg/injection, schedule: Q01DX009 (ip), vehicle: saline sonified 112 % of control | dose: 100.0 mg/kg/injection, schedule: Q01DX001 (ip), vehicle: Klucel (hydroxypropylcellulose) (HPC) 110 % of control | [17] 124 % of control | dose: 200.0 mg/kg/injection, schedule: Q01DX001 (ip), vehicle: Klucel (hydroxypropylcellulose) (HPC) 106 % of control

CCC/C=C(C)/C=N\NC(=O)c1ccc[n+](C)c1
inactive: [14] 93 % of control | [15] 97 % of control

COc1cccc2c1C(=O)c1c(O)c3c(c(O)c1C2=O)C[C@@](O)(C(=O)CO)C[C@@H]3OC1CC(NC(=S)Nc2ccc(F)cc2)C(O)C(C)O1 (stereo not given in full)
inactive: [9] 111 % of control | [10] 106 % of control | [16] 104 % of control

COc1cccc(CCC(=O)O)c1
inactive: dose: 100.0 mg/kg/injection, schedule: Q01DX009 (ip), vehicle: gum acacia 107 % of control | dose: 100.0 mg/kg/injection, schedule: Q04DX003 (ip), vehicle: gum acacia 104 % of control | dose: 200.0 mg/kg/injection, schedule: Q01DX009 (ip), vehicle: gum acacia 107 % of control | dose: 200.0 mg/kg/injection, schedule: Q04DX003 (ip), vehicle: gum acacia 102 % of control | dose: 400.0 mg/kg/injection, schedule: Q01DX009 (ip), vehicle: gum acacia 98 % of control | dose: 400.0 mg/kg/injection, schedule: Q04DX003 (ip), vehicle: gum acacia 96 % of control

C=CCC(CC)C(=O)O (stereo not given)
inactive: [17] 104 % of control | [9] 100 % of control | dose: 200.0 mg/kg/injection, schedule: Q01DX009 (ip), vehicle: saline 96 % of control | [10] 97 % of control | [16] 97 % of control

COc1ccc2c(ccc3nc(CCC(=O)O)n(C)c(=O)c32)c1
inactive: dose: 50.0 mg/kg/injection, schedule: Q01DX009 (ip), vehicle: Klucel (hydroxypropylcellulose) (HPC) 96 % of control | [4] 96 % of control | [5] 108 % of control
